Results reported in PMC10254852, “Design, Synthesis and Anticancer Evaluation of Nitroimidazole Radiosensitisers” (Molecules, 2023).
Read-outs that look alike come from different tables or passages of the source.

Experiments:
[1] = system: HCT116/54C cells; test: In vitro cytotoxicity, 4 h exposure oxic/anoxic, 5-day regrowth, sulforhodamine B; type: cell-based, human; conditions: HCT116/54C; for HCR: IC50(oxic)/IC50(anoxic); for IC50: Homo sapiens
From the text: (§1) This allowed derivation of hypoxia cytotoxicity ratios (HCR) as IC50(oxic)/IC50(anoxic) in an HCT116 subclone HCT116/54C and two HNSCC cell lines, FaDu and UT-SCC-74B (Table 2).
(§2) HCT116/54C is an HCT116 subline that originated from a mixed culture with UT-SCC-54C cells, which was supplied alongside UT-SCC-74B by Prof. Bradly Wouters (University Health Network, Toronto, ON, Canada). HCT116/54C and UT-SCC-74B cells were passaged in minimum essential media (MEM, ThermoFisher Scientific, Waltham, MA, USA) with 10% foetal calf serum (FCS, Moregate Biotech, Hamilton, New Zealand), 4.5 mg/mL D-glucose (Sigma-Aldrich, St. Louis, MO, USA) and 20 mM HEPES (Sigma-Aldrich). FaDu cells were sourced from American Type Culture Collection and cultured in αMEM (ThermoFisher Scientific) with 10% FCS. All cell lines were confirmed mycoplasma-free by PlasmoTest (InvivoGen, San Diego, CA, USA) and were derived from STR-authenticated cryopreserved stocks. Log-phase cells were seeded into 96-well plates at 800 cells/well for HCT116/54C and 1500 cells/well for FaDu. […] After drug washout, cells were grown and stained as for the oxic IC50 assays. The hypoxic cytotoxicity ratio HCR was determined as HCR = IC50(oxic)/IC50(anoxic).

[2] = system: UT-SCC-74B cells; test: as above; type: cell-based, human; conditions: for IC50: Homo sapiens; for HCR: IC50(oxic)/IC50(anoxic)
From the text: as §1, §2

[3] = system: FaDu cells; test: as above; type: cell-based; conditions: for IC50: Homo sapiens; for HCR: IC50(oxic)/IC50(anoxic)
From the text: as §1, §2

[4] = system: HCT116/54C cells; test: In vitro radiosensitisation under anoxia, clonogenic survival; type: cell-based, human; conditions: compound 1 mM, radiation dose for 1% survival/radiation dose for 1% survival with compound, mean ± SEM
Method: Next, we evaluated in vitro radiosensitisation by using a representative subset of nitroimidazole compounds in HCT116/54C cells with a clonogenic survival endpoint. Radiosensitisation was determined by treating cells under anoxia with a range of radiation doses alone and with compounds at equimolar doses (1 mM). Sensitiser enhancement ratios (SER) were calculated as the ratio of radiation dose required for 1% clonogenic survival alone or with compound (Table 3).
Cells were seeded onto 96-well plates at 10^5 cells per well and allowed to attach for 2 h. […] The plates were irradiated (Eldorado 78 ^60Co teletherapy unit, ~2 Gy/min) with 15 Gy under anoxia at room temperature for SR experiments. A metal wedge placed on the top of the metal chamber was used to achieve a graduated radiation dose across the plate, varying from 7 to 29 Gy, calibrated by Fricke dosimetry with ammonium thiocyanate as previously described for SER experiments. The control plate (compound alone, no radiation) was left inside the anaerobic chamber at room temperature during the irradiation period. After treatment, the cells were trypsinized and suspended in usual media + 1% penicillin-streptomycin (ThermoFisher Scientific), and 10-fold serial dilutions were plated for clonogenic survival. After 10 days, plates were stained with methylene blue (2 g/L in EtOH/H2O, 1:1 v/v) and colonies with more than 50 cells were counted. The surviving fraction (SF) was determined as: SF = PE(irradiated)/PE(control) where the plating efficiency (PE) = (No. of colonies)/(No. of cells plated). SF was plotted against radiation dose. Survival ratios (SR) were calculated: SR = (cell survival with radiation)/(cell survival with drug + radiation). Sensitizer enhancement ratios (SER) were calculated: SER = (radiation dose for 1% survival without compound)/(radiation dose for 1% survival with compound).

[5] = system: HCT116/54C tumours; test: Tumour radiosensitisation: ex vivo clonogenic assay; type: in vivo, NIH-III mice; conditions: for Sensitisation Ratio: 2.2 mmol/kg i.v. 5 min prior to 10 Gy radiation, surviving fraction after radiation/surviving fraction after drug + radiation; for enhancement of tumour killing of radiotherapy (RAD vs drug + RAD): 2.2 mmol/kg i.v. + 10 Gy, one-way ANOVA
Method: Specific pathogen-free six- to eight-week-old female NIH-III mice, bred in the Vernon Jansen Unit, University of Auckland, were used for animal experiments. Animals had ad libitum access to food and water and were maintained in microisolator cages on a 12 h light/dark cycle. All treatments were administered by i.v. injection at a dose of 2.2 mmol/kg and injection volume of 10 mL/kg. Compounds 2, 34 and 38 were administered as solutions in saline containing 1% DMSO or for 9–12 as solutions in saline containing 2 molar equivalents of NaHCO3. Control animals received an i.v. injection of saline at 10 mL/kg. All animal experiments were conducted under the auspices of the University of Auckland Animal Ethics Committee (approval 1781).
Compounds were evaluated for in vivo radiosensitisation of hypoxic cells in HCT116/54C and UT-SCC-74B human tumour xenografts using clonogenic survival as an endpoint, using previously report methods. Tumours were grown subcutaneously on the flanks of NIH-III mice by injecting 5 × 10^6 HCT116/54C cells or UT-SCC-74B cells. Once tumours reached a volume of approximately 250 mm^3, mice were randomly assigned to 4 treatment groups and treated with: (A) vehicle control, (B) 10 Gy RAD only, (C) sensitiser only, or (D) sensitiser given before 10 Gy RAD. Drugs were administered as a single i.v. dose at 2.2 mmol/kg. […] Tumours were excised 18 h after treatment, and tumour cells were dissociated enzymatically and plated to determine the number of surviving (clonogenic) cells per gram of tumour tissue. SF and SR were calculated as described above. Statistical significance of drug effects was tested using one-way ANOVA with Sidak tests for multiple comparisons vs. radiation alone (Table 5).

[6] = set-up: method as in PMID 29253343; conditions: NIH-III mice, 2.2 mmol/kg i.v., cited from earlier work; for Cmax: read-out: Plasma Cmax
[7] = anoxic, 4 h exposure, mean ± SEM, n = 3–4, read-out: IC50 Anoxic
[8] = oxic, 4 h exposure, mean ± SEM, n = 3–4, read-out: IC50 Oxic

SMILES	HCR [1]	IC50 [1, 7]	IC50 [1, 8]	IC50 [2, 7]	IC50 [2, 8]	HCR [2]	IC50 [3, 7]	IC50 [3, 8]	HCR [3]	SER at 1 mM [4]	further results
O=[N+]([O-])c1cncn1CCS(=O)(=O)NCCO [Compound 8]	>2.4	9 ± 0.9 mM	> 22 mM	10.9 ± 1.3 mM	> 22 mM	>2.0	6.6 ± 0.6 mM	> 24 mM	>3.6	1.27 ± 0.00	
COCCNS(=O)(=O)CCn1cncc1[N+](=O)[O-] [Compound 39]	>1.9	13 ± 1.3 mM	> 25 mM				7.2 ± 0.2 mM	> 19 mM	>2.6		
COCCNS(=O)(=O)CCn1c([N+](=O)[O-])cnc1C [Compound 40]	>1.8	11 ± 0.4 mM	> 20 mM				8 ± 0.5 mM	> 22 mM	>2.7		
O=[N+]([O-])c1cncn1CCS(=O)(=O)NCCOP(=O)(O)O [Compound 12]											Sensitisation Ratio [5]: 3.32; enhancement of tumour killing of radiotherapy (RAD vs drug + RAD) [5]: significantly enhanced the tumour killing of radiotherapy
Cc1ncc([N+](=O)[O-])n1CCS(=O)(=O)NCCCN1CCOCC1 [Compound 44]	>2.0	10.3 ± 1.5 mM	> 21 mM	7.1 ± 1.5 mM	13.2 ± 2 mM	1.9	7.8 ± 0.7 mM	> 16 mM	>2.0		
Cc1ncc([N+](=O)[O-])n1CCS(=O)(=O)NCCO [Compound 41]	>1.1	15.5 ± 2.6 mM	> 18 mM	13.7 ± 3.7 mM	> 21 mM	>1.5	> 22 mM	> 25 mM		1.16 ± 0.01	
Cc1ncc([N+](=O)[O-])n1CCS(=O)(=O)N1CCC(N(C)C)CC1 [Compound 46]	8.6	2 ± 0.3 mM	16.9 ± 1.4 mM	1.9 ± 0.2 mM	8.1 ± 0.9 mM	4.4	1.3 ± 0.1 mM	9.5 ± 2 mM	7.3		
COCCNS(=O)(=O)CCn1ccnc1[N+](=O)[O-] [Compound 35]	>16	0.97 ± 0.16 mM	> 16 mM				0.81 ± 0.12 mM	16.5 ± 1.6 mM	20.4		
O=[N+]([O-])c1cncn1CCN1CCOCC1 [Compound 3, nimorazole, reference compound]		> 20 mM	> 25 mM				13.2 ± 3.4 mM	> 20 mM	>1.5	1.20 ± 0.01	
Cc1ncc([N+](=O)[O-])n1CCS(=O)(=O)NCCN1CCOCC1 [Compound 42]	1.8	4.3 ± 0.2 mM	7.6 ± 0.4 mM	6.6 ± 0.6 mM	8.9 ± 1.6 mM	1.4	7.8 ± 0.2 mM	9.8 ± 1.2 mM	1.3	1.16 ± 0.01	
O=[N+]([O-])c1cncn1CS(=O)(=O)NCCOP(=O)(O)O [Compound 11]											AUC [6]: 710 µM·h; T1/2 [6]: 1.72 h; Cmax [6]: 1100 µM; Sensitisation Ratio [5]: 1.85; enhancement of tumour killing of radiotherapy (RAD vs drug + RAD) [5]: not
COCCNS(=O)(=O)Cn1ccnc1[N+](=O)[O-] [Compound 33]	>51	0.12 ± 0.002 mM	> 6.2 mM	0.19 ± 0.02 mM	3.7 ± 0.8 mM	19.9	0.09 ± 0.01 mM	4 ± 1.2 mM	46.6		
O=[N+]([O-])c1nccn1CCS(=O)(=O)NCCN1CCOCC1 [Compound 36]	12.9	0.71 ± 0.13 mM	9.2 ± 1.1 mM	1.6 ± 0.3 mM	11.9 ± 1.5 mM	7.6	0.69 ± 0.04 mM	7.3 ± 0.6 mM	10.6	1.57 ± 0.00	
COCCNS(=O)(=O)Cn1cncc1[N+](=O)[O-] [Compound 37]	2.9	4 ± 0.7 mM	11.4 ± 1 mM				2.1 ± 0.04 mM	12 ± 1.9 mM	5.7		
Cc1ncc([N+](=O)[O-])n1CCS(=O)(=O)N1CCN(C)CC1 [Compound 43]	1.2	9.9 ± 0.3 mM	11.7 ± 1.3 mM				8.6 ± 0.6 mM	13.3 ± 2.5 mM	1.6		
O=[N+]([O-])c1nccn1CCS(=O)(=O)NCCOP(=O)(O)O [Compound 10]											AUC [6]: 640 µM·h; T1/2 [6]: 2.21 h; Cmax [6]: 1140 µM; Sensitisation Ratio [5]: 1.78; enhancement of tumour killing of radiotherapy (RAD vs drug + RAD) [5]: not
COCC(O)Cn1ccnc1[N+](=O)[O-] (stereo not drawn) [Compound 1, misonidazole, reference compound]	>16.8					>11.9			>15.4	1.46 ± 0.01	IC50 ([1]; 4 h, read-out: IC50 Anoxic): 1.5 ± 0.3 mM; IC50 ([1]; 4 h, read-out: IC50 Oxic): > 25 mM; IC50 ([1]; read-out: hypoxic IC50): 0.5 mM; IC50 ([2]; 4 h, read-out: IC50 Anoxic): 2.1 ± 0.6 mM; IC50 ([2]; 4 h, read-out: IC50 Oxic): > 25 mM; IC50 ([3]; 4 h, read-out: IC50 Anoxic): 1.3 ± 0.2 mM; IC50 ([3]; 4 h, read-out: IC50 Oxic): > 20 mM
O=[N+]([O-])c1nccn1CCS(=O)(=O)NCCO [Compound 6]	>7.3	2.2 ± 0.04 mM	> 16 mM	3 ± 0.6 mM	> 20 mM	>6.6	1.2 ± 0.2 mM	17.8 ± 2.2 mM	14.9	1.39 ± 0.01	
Cc1ncc([N+](=O)[O-])n1CCS(=O)(=O)NCCN1CCCCC1 [Compound 45]	5.0	2.4 ± 0.4 mM	11.8 ± 1.5 mM				1.7 ± 0.4 mM	4.8 ± 0.3 mM	2.8		
